biological target: T1, TLR9 (Homo sapiens, UniProt Q9NR96); assay: huPBMC TLR9 Antagonist IFNα Assay; type: cell-based; details: human PBMCs stimulated with ODN2216 0.3 μM, 14-16 hrs; IFNα2b AlphaLISA read-out
T1 construct: Fresh blood was collected from normal human donors; endogenous in cells; host or cells: human PBMCs from fresh donor blood
T1 sequence (Q9NR96 26-1032): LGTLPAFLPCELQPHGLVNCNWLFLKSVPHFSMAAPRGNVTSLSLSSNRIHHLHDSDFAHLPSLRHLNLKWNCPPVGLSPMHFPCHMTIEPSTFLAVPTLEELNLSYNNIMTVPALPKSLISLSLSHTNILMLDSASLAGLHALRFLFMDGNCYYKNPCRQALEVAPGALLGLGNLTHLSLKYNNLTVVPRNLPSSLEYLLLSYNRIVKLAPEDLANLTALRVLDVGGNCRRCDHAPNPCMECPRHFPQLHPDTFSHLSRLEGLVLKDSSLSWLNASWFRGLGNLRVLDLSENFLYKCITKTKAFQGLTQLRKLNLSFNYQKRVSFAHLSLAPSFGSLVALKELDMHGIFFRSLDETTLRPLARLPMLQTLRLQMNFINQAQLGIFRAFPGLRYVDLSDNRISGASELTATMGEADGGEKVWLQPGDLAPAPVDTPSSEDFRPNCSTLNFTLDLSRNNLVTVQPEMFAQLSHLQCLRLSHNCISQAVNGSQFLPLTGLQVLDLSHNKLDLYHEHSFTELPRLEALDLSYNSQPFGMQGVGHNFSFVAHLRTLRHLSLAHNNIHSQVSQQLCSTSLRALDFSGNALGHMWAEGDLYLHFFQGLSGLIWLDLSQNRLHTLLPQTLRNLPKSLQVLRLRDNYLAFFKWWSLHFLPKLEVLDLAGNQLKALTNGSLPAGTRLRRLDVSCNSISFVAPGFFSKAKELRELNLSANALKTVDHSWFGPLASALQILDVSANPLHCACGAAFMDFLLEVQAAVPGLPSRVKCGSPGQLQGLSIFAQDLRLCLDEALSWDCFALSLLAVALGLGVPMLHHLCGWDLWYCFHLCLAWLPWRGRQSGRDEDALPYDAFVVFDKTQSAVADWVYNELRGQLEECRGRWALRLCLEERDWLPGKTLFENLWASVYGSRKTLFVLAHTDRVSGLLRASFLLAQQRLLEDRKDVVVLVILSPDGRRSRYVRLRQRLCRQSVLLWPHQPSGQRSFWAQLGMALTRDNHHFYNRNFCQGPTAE
How it was run: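 Human PBMCs from fresh donor blood (150,000 cells/well) stimulated 14–16 h at 37 °C with DOTAP-complexed ssRNA40 (final 1 μg/ml for TLR8, 10 μg/mL for TLR7) or ODN2216 (final 0.3 μM, TLR9), 0.25% DMSO, ten-point 1/3 compound dilutions. Supernatant IL-6 read by HTRF (TLR8); IFNα by IFNα2b AlphaLISA (TLR7/TLR9).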

| SMILES | IC50 [µM] |
| --- | --- |
| Cc1cc(N2CCc3c(c(C)nn3CC34CCC(N5CCO[C@@H](C)C5)(CC3)CC4)C2)c2cnn(C)c2n1 [compound 109, (S)-4-(4-((5-(1,6-dimethyl-1H-pyrazolo[3,4-b]pyridin-4-yl)-3-methyl-4,5,6,7-tetrahydro-1H-pyrazolo[4,3-c]pyridin-1-yl)methyl)bicyclo[2.2.2]octan-1-yl)-2-methylmorpholine] | 0.515 |
| Cc1cc(N2CCc3c(c(C)nn3CC34CCC(N5C[C@@H](C)O[C@@H](C)C5)(CC3)CC4)C2)c2cnn(C)c2n1 [compound 110, (2S,6R)-4-(4-((5-(1,6-dimethyl-1H-pyrazolo[3,4-b]pyridin-4-yl)-3-methyl-4,5,6,7-tetrahydro-1H-pyrazolo[4,3-c]pyridin-1-yl)methyl)bicyclo[2.2.2]octan-1-yl)-2,6-dimethylmorpholine] | 1.9 |
| Cc1cc(N2CCc3c(c(C)nn3CC34CCC(N5C[C@H](C)O[C@@H](C)C5)(CC3)CC4)C2)c2cnn(C)c2n1 [compound 111, (2S,6S)-4-(4-((5-(1,6-dimethyl-1H-pyrazolo[3,4-b]pyridin-4-yl)-3-methyl-4,5,6,7-tetrahydro-1H-pyrazolo[4,3-c]pyridin-1-yl)methyl)bicyclo[2.2.2]octan-1-yl)-2,6-dimethylmorpholine] | 1.41 |
| Cc1cc(N2CCc3c(c(C)nn3CC34CCC(NCC5CCC5)(CC3)CO4)C2)c2cnn(C)c2n1 [compound 112, N-(cyclobutylmethyl)-1-((5-(1,6-dimethyl-1H-pyrazolo[3,4-b]pyridin-4-yl)-3-methyl-4,5,6,7-tetrahydro-1H-pyrazolo[4,3-c]pyridin-1-yl)methyl)-2-oxabicyclo[2.2.2]octan-4-amine] | 1.19 |
| Cc1cc(N2CCc3c(c(C)nn3CC34CCC(N5C[C@@H](C)O[C@H](C)C5)(CC3)CC4)C2)c2cnn(C)c2n1 [compound 113, (2R,6R)-4-(4-((5-(1,6-dimethyl-1H-pyrazolo[3,4-b]pyridin-4-yl)-3-methyl-4,5,6,7-tetrahydro-1H-pyrazolo[4,3-c]pyridin-1-yl)methyl)bicyclo[2.2.2]octan-1-yl)-2,6-dimethylmorpholine] | 1.41 |
| CCNCC(=O)NC12CCC(Cn3nc(C)c4c3CCN(c3cc(C)nc5c3cnn5C)C4)(CC1)CC2 [compound 114, N-(4-((5-(1,6-dimethyl-1H-pyrazolo[3,4-b]pyridin-4-yl)-3-methyl-4,5,6,7-tetrahydro-1H-pyrazolo[4,3-c]pyridin-1-yl)methyl)bicyclo[2.2.2]octan-1-yl)-2-(ethylamino)acetamide] | 1.55 |
| Cc1cc(N2CCc3c(c(C)nn3CC34CCC(NC(=O)CCN)(CC3)CC4)C2)c2cnn(C)c2n1 [compound 115, 3-amino-N-(4-((5-(1,6-dimethyl-1H-pyrazolo[3,4-b]pyridin-4-yl)-3-methyl-4,5,6,7-tetrahydro-1H-pyrazolo[4,3-c]pyridin-1-yl)methyl)bicyclo[2.2.2]octan-1-yl)propanamide] | > 10 |
| Cc1cc(N2CCc3c(c(C)nn3CC34CCC(N5CC6(COC6)C5)(CC3)CC4)C2)c2cnn(C)c2n1 [compound 116, 6-(4-((5-(1,6-dimethyl-1H-pyrazolo[3,4-b]pyridin-4-yl)-3-methyl-4,5,6,7-tetrahydro-1H-pyrazolo[4,3-c]pyridin-1-yl)methyl)bicyclo[2.2.2]octan-1-yl)-2-oxa-6-azaspiro[3.3]heptane] | 1.57 |
| CN[C@H](C)C(=O)NC12CCC(Cn3nc(C)c4c3CCN(c3cc(C)nc5c3cnn5C)C4)(CC1)CC2 [compound 117, (R)-N-(4-((5-(1,6-dimethyl-1H-pyrazolo[3,4-b]pyridin-4-yl)-3-methyl-4,5,6,7-tetrahydro-1H-pyrazolo[4,3-c]pyridin-1-yl)methyl)bicyclo[2.2.2]octan-1-yl)-2-(methylamino)propanamide] | 0.954 |
| CN[C@@H](C)C(=O)NC12CCC(Cn3nc(C)c4c3CCN(c3cc(C)nc5c3cnn5C)C4)(CC1)CC2 [compound 118] | 0.775 |
| CNCC(=O)NC12CCC(Cn3nc(C)c4c3CCN(c3cc(C)nc5c3cnn5C)C4)(CC1)CC2 [compound 121, N-(4-((5-(1,6-dimethyl-1H-pyrazolo[3,4-b]pyridin-4-yl)-3-methyl-4,5,6,7-tetrahydro-1H-pyrazolo[4,3-c]pyridin-1-yl)methyl)bicyclo[2.2.2]octan-1-yl)-2-(methylamino)acetamide] | 1.44 |
| Cc1cc(N2CCc3c(c(C)nn3CC34CCC(NCC(C)(C)O)(CC3)CC4)C2)c2cnn(C)c2n1 [compound 123, 1-((4-((5-(1,6-dimethyl-1H-pyrazolo[3,4-b]pyridin-4-yl)-3-methyl-4,5,6,7-tetrahydro-1H-pyrazolo[4,3-c]pyridin-1-yl)methyl)bicyclo[2.2.2]octan-1-yl)amino)-2-methylpropan-2-ol] | 2.23 |
| CCNCC(=O)NC12CCC(Cn3nc(C)c4c3CCN(c3cc(C)nc5cn[nH]c35)C4)(CC1)CC2 [compound 124, 2-(ethylamino)-N-(4-((3-methyl-5-(5-methyl-1H-pyrazolo[4,3-b]pyridin-7-yl)-4,5,6,7-tetrahydro-1H-pyrazolo[4,3-c]pyridin-1-yl)methyl)bicyclo[2.2.2]octan-1-yl)acetamide] | > 10 |
| Cc1cc(N2CCc3c(c(C)nn3CC34CCC(NC(=O)C5CNCCO5)(CC3)CC4)C2)c2cnn(C)c2n1 (stereo not shown) [compound 125, N-(4-((5-(1,6-dimethyl-1H-pyrazolo[3,4-b]pyridin-4-yl)-3-methyl-4,5,6,7-tetrahydro-1H-pyrazolo[4,3-c]pyridin-1-yl)methyl)bicyclo[2.2.2]octan-1-yl)morpholine-2-carboxamide] | 0.909 |
| CCNCCC(=O)NC12CCC(Cn3nc(C)c4c3CCN(c3cc(C)nc5c3cnn5C)C4)(CC1)CC2 [compound 126, N-(4-((5-(1,6-dimethyl-1H-pyrazolo[3,4-b]pyridin-4-yl)-3-methyl-4,5,6,7-tetrahydro-1H-pyrazolo[4,3-c]pyridin-1-yl)methyl)bicyclo[2.2.2]octan-1-yl)-3-(ethylamino)propanamide] | 9.53 |
| CCNC12CCC(Cn3nc(C)c4c3CCN(c3ccnc(-c5ccccc5)c3)C4)(CC1)CC2 [compound 127, N-ethyl-4-((3-methyl-5-(2-phenylpyridin-4-yl)-4,5,6,7-tetrahydro-1H-pyrazolo[4,3-c]pyridin-1-yl)methyl)bicyclo[2.2.2]octan-1-amine] | 0.545 |
| Cc1cc(N2CCc3c(c(C)nn3CC34CCC(N5CCOC[C@@H]5C)(CC3)CC4)C2)c2cnn(C)c2n1 [compound 128, (S)-4-(4-((5-(1,6-dimethyl-1H-pyrazolo[3,4-b]pyridin-4-yl)-3-methyl-4,5,6,7-tetrahydro-1H-pyrazolo[4,3-c]pyridin-1-yl)methyl)bicyclo[2.2.2]octan-1-yl)-3-methylmorpholine] | 0.792 |
| Cc1cc(N2CCc3c(c(C)nn3CC34CCC(N5CCOC[C@H]5C)(CC3)CC4)C2)c2cnn(C)c2n1 [compound 129, (R)-4-(4-((5-(1,6-dimethyl-1H-pyrazolo[3,4-b]pyridin-4-yl)-3-methyl-4,5,6,7-tetrahydro-1H-pyrazolo[4,3-c]pyridin-1-yl)methyl)bicyclo[2.2.2]octan-1-yl)-3-methylmorpholine] | 1.05 |
| COCCNC12CCC(Cn3nc(C)c4c3CCN(c3ccnc(-c5ccccc5)c3)C4)(CC1)CC2 [compound 130, N-(2-methoxyethyl)-4-((3-methyl-5-(2-phenylpyridin-4-yl)-4,5,6,7-tetrahydro-1H-pyrazolo[4,3-c]pyridin-1-yl)methyl)bicyclo[2.2.2]octan-1-amine] | 0.672 |
